Numbered stars: 1 amine (or outer) side, 2 acyl side, 3 side chain; on linkers, the order of the positions; unused ones are H or OH. Bridge positions count the residues as written; N and C are the ends. Square brackets hold non-standard residues; d marks the D form. Side chains are listed from the residue outwards. Peptide text beside a SMILES is read from it. * marks the point of attachment. C20 diacid = O=C(O)CCCCCCCCCCCCCCCCCCC(=O)*; C18 diacid = O=C(O)CCCCCCCCCCCCCCCCC(=O)*; γGlu = O=C(O)[C@H](CCC(=O)[*:2])N[*:1]; cisHyp = O=C(O)[C@@H]1C[C@H](O)CN1; Hyp = O=C(O)[C@@H]1C[C@@H](O)CN1; AEEA = NCCOCCOCC(=O)O; Inp = O=C(O)C1CCNCC1
Target: T1, human amylin receptor (Homo sapiens, UniProt O60896+P30988)
T1 construct: host or cells: CHO-K1/Ga15/AMY3 cells, further stably transfected with a CRE-luciferase plasmid
T1 sequence (P30988 25-474): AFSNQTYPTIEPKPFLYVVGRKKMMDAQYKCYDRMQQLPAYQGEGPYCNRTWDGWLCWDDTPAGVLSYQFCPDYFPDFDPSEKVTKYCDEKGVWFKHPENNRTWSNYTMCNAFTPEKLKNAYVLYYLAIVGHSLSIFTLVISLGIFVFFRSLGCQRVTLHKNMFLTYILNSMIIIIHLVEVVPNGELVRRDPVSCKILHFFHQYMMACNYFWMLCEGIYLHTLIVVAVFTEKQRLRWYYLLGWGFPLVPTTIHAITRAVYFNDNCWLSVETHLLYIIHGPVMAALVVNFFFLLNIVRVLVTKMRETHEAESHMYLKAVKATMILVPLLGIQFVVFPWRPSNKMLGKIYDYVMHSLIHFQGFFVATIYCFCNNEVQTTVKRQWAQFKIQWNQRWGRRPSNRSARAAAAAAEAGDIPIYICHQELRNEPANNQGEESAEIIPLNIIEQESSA
T1 sequence (O60896 24-148 partner): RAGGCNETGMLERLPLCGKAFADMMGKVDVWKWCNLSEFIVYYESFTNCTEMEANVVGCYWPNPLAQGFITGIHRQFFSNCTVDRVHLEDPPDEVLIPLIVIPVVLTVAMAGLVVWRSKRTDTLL
Test: Luciferase assay of amylin derivatives in amylin receptor/CRE-luc CHO cell line
Type: cell-based
Details: CHO-K1/Ga15/AMY3 CRE-luc cells, 24 hours incubation, F12 medium containing 10% FBS; read-out: EC50
Procedure: The experiment was intended to detect the activity or efficacy of the amylin derivatives on a human amylin receptor in vitro by luciferase assay.
50 μL of growth medium (F12 medium containing 10% FBS) was added into each well of a white 96-well plate, and the stably transfected amylin/CRE-lue CHO cells were inoculated into the white 96-well plate at a density of about 20,000 cells/well for activity determination.

`CC[C@H](C)[C@H](NC(=O)[C@@H]1CCCN1C(=O)CNC(=O)[C@H](CCCCNC(=O)CC[C@H](NC(=O)CCCCCCCCCCCCCCCCC(=O)O)C(=O)O)NC(=O)[C@H](CC(N)=O)NC(=O)[C@H](CC(N)=O)NC(=O)[C@H](CO)NC(=O)[C@H](CO)NC(=O)[C@H](Cc1c[nH]cn1)NC(=O)[C@H](CCCNC(=N)N)NC(=O)[C@H](CC(C)C)NC(=O)[C@H](Cc1ccccc1)NC(=O)[C@H](CC(=O)O)NC(=O)[C@H](C)NC(=O)[C@H](CC(C)C)NC(=O)[C@H](CCCNC(=N)N)NC(=O)[C@H](CCC(N)=O)NC(=O)[C@@H](NC(=O)[C@H](C)NC(=O)[C@@H]1CSSC[C@H](NC(=O)[C@@H](N)CCCNC(=N)N)C(=O)N[C@@H](CC(N)=O)C(=O)N[C@@H]([C@@H](C)O)C(=O)N[C@@H](C)C(=O)N[C@@H]([C@@H](C)O)C(=O)N1)[C@@H](C)O)C(=O)N[C@@H](CC(C)C)C(=O)N1CCC[C@H]1C(=O)N1CCC[C@H]1C(=O)N[C@H](C(=O)N[C@@H](CC(N)=O)C(=O)N[C@H](C(=O)NCC(=O)N[C@@H](CO)C(=O)N[C@@H](CC(N)=O)C(=O)N[C@H](C(=O)N1C[C@H](O)C[C@H]1C(N)=O)[C@@H](C)O)C(C)C)[C@@H](C)O` [PD084] (H-RCNTATCATQRLADFLRHSSNNK([γGlu-C18 diacid])GPILPPTNVGSNT[Hyp]-NH2; disulfide 2-7 (inferred); N-terminus assumed) was tested, and the EC50 was 0.008 nM.
`CC[C@H](C)[C@H](NC(=O)[C@@H]1CCCN1C(=O)CNC(=O)[C@H](CC(C)C)NC(=O)[C@H](CC(N)=O)NC(=O)[C@H](CC(N)=O)NC(=O)[C@H](CO)NC(=O)[C@H](CCCCNC(=O)CC[C@H](NC(=O)CCCCCCCCCCCCCCCCCCC(=O)O)C(=O)O)NC(=O)[C@H](Cc1c[nH]cn1)NC(=O)[C@H](CCCNC(=N)N)NC(=O)[C@H](CC(C)C)NC(=O)[C@H](Cc1ccccc1)NC(=O)[C@H](CC(=O)O)NC(=O)[C@H](C)NC(=O)[C@H](CC(C)C)NC(=O)[C@H](CCCNC(=N)N)NC(=O)[C@H](CCC(N)=O)NC(=O)[C@@H](NC(=O)[C@H](C)NC(=O)[C@@H]1CSSC[C@H](NC(=O)[C@@H](N)CCCNC(=N)N)C(=O)N[C@@H](CC(N)=O)C(=O)N[C@@H]([C@@H](C)O)C(=O)N[C@@H](C)C(=O)N[C@@H]([C@@H](C)O)C(=O)N1)[C@@H](C)O)C(=O)N[C@@H](CC(C)C)C(=O)N1CCC[C@H]1C(=O)N1CCC[C@H]1C(=O)N[C@H](C(=O)N[C@@H](CC(N)=O)C(=O)N[C@H](C(=O)NCC(=O)N[C@@H](CO)C(=O)N[C@@H](CC(N)=O)C(=O)N[C@H](C(=O)N1C[C@H](O)C[C@H]1C(N)=O)[C@@H](C)O)C(C)C)[C@@H](C)O` [PD098] (H-RCNTATCATQRLADFLRHK([γGlu-C20 diacid])SNNLGPILPPTNVGSNT[Hyp]-NH2; disulfide 2-7) showed an EC50 of 0.077 nM.
In the case of `CC[C@H](C)[C@H](NC(=O)[C@@H]1CCCN1C(=O)[C@H](CCCCN)NC(=O)[C@H](CC(C)C)NC(=O)[C@H](CC(N)=O)NC(=O)[C@H](CC(N)=O)NC(=O)[C@H](CO)NC(=O)[C@H](CO)NC(=O)[C@H](Cc1c[nH]cn1)NC(=O)[C@H](CCCNC(=N)N)NC(=O)[C@H](CC(C)C)NC(=O)[C@H](Cc1ccccc1)NC(=O)[C@H](CC(=O)O)NC(=O)[C@H](C)NC(=O)[C@H](CC(C)C)NC(=O)[C@H](CCCNC(=N)N)NC(=O)[C@H](CCC(N)=O)NC(=O)[C@@H](NC(=O)[C@H](C)NC(=O)[C@@H]1CSSC[C@H](NC(=O)[C@H](CCCCN)NC(=O)COCCOCCNC(=O)COCCOCCNC(=O)[C@H](CC(=O)O)NC(=O)CCCCCCCCCCCCCCCCCCC(=O)O)C(=O)N[C@@H](CC(N)=O)C(=O)N[C@@H]([C@@H](C)O)C(=O)N[C@@H](C)C(=O)N[C@@H]([C@@H](C)O)C(=O)N1)[C@@H](C)O)C(=O)N[C@@H](CC(C)C)C(=O)N1CCC[C@H]1C(=O)N1CCC[C@H]1C(=O)N[C@H](C(=O)N[C@@H](CC(N)=O)C(=O)N[C@H](C(=O)NCC(=O)N[C@@H](CO)C(=O)N[C@@H](CC(N)=O)C(=O)N[C@H](C(=O)N1CCC[C@H]1C(N)=O)[C@@H](C)O)C(C)C)[C@@H](C)O` [PD193] ({C20 diacid}-D[AEEA][AEEA]KCNTATCATQRLADFLRHSSNNLKPILPPTNVGSNTP-NH2; disulfide 5-10 (inferred)), the EC50 is reported as 0.074 nM.
`CC[C@H](C)[C@H](NC(=O)[C@@H]1CCCN1C(=O)CNC(=O)[C@H](CC(C)C)NC(=O)[C@H](CC(N)=O)NC(=O)[C@H](CC(N)=O)NC(=O)[C@H](CO)NC(=O)[C@H](CCCCNC(=O)COCCOCCNC(=O)CC[C@H](NC(=O)CCCCCCCCCCCCCCCCCCC(=O)O)C(=O)O)NC(=O)[C@H](Cc1c[nH]cn1)NC(=O)[C@H](CCCNC(=N)N)NC(=O)[C@H](CC(C)C)NC(=O)[C@H](Cc1ccccc1)NC(=O)[C@H](CC(=O)O)NC(=O)[C@H](C)NC(=O)[C@H](CC(C)C)NC(=O)[C@H](CCCNC(=N)N)NC(=O)[C@H](CCC(N)=O)NC(=O)[C@@H](NC(=O)[C@H](C)NC(=O)[C@@H]1CSSC[C@H](NC(=O)[C@@H](N)CCCNC(=N)N)C(=O)N[C@@H](CC(N)=O)C(=O)N[C@@H]([C@@H](C)O)C(=O)N[C@@H](C)C(=O)N[C@@H]([C@@H](C)O)C(=O)N1)[C@@H](C)O)C(=O)N[C@@H](CC(C)C)C(=O)N1CCC[C@H]1C(=O)N1CCC[C@H]1C(=O)N[C@H](C(=O)N[C@@H](CC(N)=O)C(=O)N[C@H](C(=O)NCC(=O)N[C@@H](CO)C(=O)N[C@@H](CC(N)=O)C(=O)N[C@H](C(=O)N1C[C@H](O)C[C@H]1C(N)=O)[C@@H](C)O)C(C)C)[C@@H](C)O` [PD118] (H-RCNTATCATQRLADFLRHK([AEEA-γGlu-C20 diacid])SNNLGPILPPTNVGSNT[Hyp]-NH2; disulfide 2-7) was tested, and the EC50 was 0.032 nM.
`CC[C@H](C)[C@H](NC(=O)[C@@H]1CCCN1C(=O)[C@H](CCCCNC(=O)CC[C@H](NC(=O)CCCCCCCCCCCCCCCCCCC(=O)O)C(=O)O)NC(=O)[C@H](CC(C)C)NC(=O)[C@H](CC(N)=O)NC(=O)[C@H](CC(N)=O)NC(=O)[C@H](CO)NC(=O)[C@H](CO)NC(=O)[C@H](Cc1c[nH]cn1)NC(=O)[C@H](CCCNC(=N)N)NC(=O)[C@H](CC(C)C)NC(=O)[C@H](Cc1ccccc1)NC(=O)[C@H](CC(=O)O)NC(=O)[C@H](C)NC(=O)[C@H](CC(C)C)NC(=O)[C@H](CCCNC(=N)N)NC(=O)[C@H](CCC(N)=O)NC(=O)[C@@H](NC(=O)[C@H](C)NC(=O)[C@@H]1CSSC[C@H](NC(=O)[C@@H](N)CCCNC(=N)N)C(=O)N[C@@H](CC(N)=O)C(=O)N[C@@H]([C@@H](C)O)C(=O)N[C@@H](C)C(=O)N[C@@H]([C@@H](C)O)C(=O)N1)[C@@H](C)O)C(=O)N[C@@H](CC(C)C)C(=O)N1CCC[C@H]1C(=O)N1CCC[C@H]1C(=O)N[C@H](C(=O)N[C@@H](CC(N)=O)C(=O)N[C@H](C(=O)NCC(=O)N[C@@H](CO)C(=O)N[C@@H](CC(N)=O)C(=O)N[C@H](C(=O)N1C[C@@H](O)C[C@H]1C(N)=O)[C@@H](C)O)C(C)C)[C@@H](C)O` [PD056] (H-RCNTATCATQRLADFLRHSSNNLK([γGlu-C20 diacid])PILPPTNVGSNT[cisHyp]-NH2; disulfide 2-7) gave an EC50 of 0.586 nM.
`CC[C@H](C)[C@H](NC(=O)[C@@H]1CCCN1C(=O)[C@H](CCCCN)NC(=O)[C@H](CC(C)C)NC(=O)[C@H](CC(N)=O)NC(=O)[C@H](CC(N)=O)NC(=O)[C@H](CO)NC(=O)[C@H](CO)NC(=O)[C@H](Cc1c[nH]cn1)NC(=O)[C@H](CCCNC(=N)N)NC(=O)[C@H](CC(C)C)NC(=O)[C@H](Cc1ccccc1)NC(=O)[C@H](CC(=O)O)NC(=O)[C@H](C)NC(=O)[C@H](CC(C)C)NC(=O)[C@H](CCCNC(=N)N)NC(=O)[C@H](CCC(N)=O)NC(=O)[C@@H](NC(=O)[C@H](C)NC(=O)[C@@H]1CSSC[C@H](NC(=O)[C@H](CCCCN)NC(=O)COCCOCCNC(=O)COCCOCCNC(=O)C2CCN(C(=O)CCCCCCCCCCCCCCCCCCC(=O)O)CC2)C(=O)N[C@@H](CC(N)=O)C(=O)N[C@@H]([C@@H](C)O)C(=O)N[C@@H](C)C(=O)N[C@@H]([C@@H](C)O)C(=O)N1)[C@@H](C)O)C(=O)N[C@@H](CC(C)C)C(=O)N1CCC[C@H]1C(=O)N1CCC[C@H]1C(=O)N[C@H](C(=O)N[C@@H](CC(N)=O)C(=O)N[C@H](C(=O)NCC(=O)N[C@@H](CO)C(=O)N[C@@H](CC(N)=O)C(=O)N[C@H](C(=O)N1C[C@H](O)C[C@H]1C(N)=O)[C@@H](C)O)C(C)C)[C@@H](C)O` [PD179] ({C20 diacid-Inp-AEEA-AEEA}-KCNTATCATQRLADFLRHSSNNLKPILPPTNVGSNT[Hyp]-NH2; disulfide 2-7) was tested, and the EC50 was 0.017 nM.
